Measured values as given in patent publication US4563451A, “Quinazolino-1,4-benzodiazepin-5,13-diones” (Merck & Co., Inc., priority 1985, dated 1986).
Where a SMILES comes first, the peptide text is derived from it. [ ]: non-standard residue; d: D form. The star is where a group is joined. sY = N[C@@H](Cc1ccc(OS(=O)(=O)O)cc1)C(=O)O; Cbz = O=C(OCc1ccccc1)*; Boc = CC(C)(C)OC(=O)*

tested on: CCK-receptor; assay: not given; conditions: background; cited from earlier work

| Structure (SMILES) | CCK-antagonism (in words) |
| --- | --- |
| CSCC[C@H](NC(=O)OC(C)(C)C)C(=O)N[C@@H](CC(=O)O)C(=O)N[C@@H](Cc1ccccc1)C(N)=O [Boc--Met--Asp--Phe--NH2] (Boc-Met-Asp-Phe-NH2) | can function as CCK-antagonists |
| CSCC[C@H](NC(=O)[C@H](Cc1ccc(OS(=O)(=O)O)cc1)NC(=O)OCc1ccccc1)C(=O)NCC(=O)N[C@@H](Cc1c[nH]c2ccccc12)C(=O)N[C@@H](CCSC)C(=O)N[C@@H](CC(=O)O)C(N)=O [Cbz--Tyr(SO3 H)--Met--Gly--Trp--Met--Asp--NH2] (Cbz-[sY]MGWMD-NH2) | can function as CCK-antagonists |
| CSCC[C@H](N)C(=O)N[C@@H](CC(=O)O)C(=O)N[C@@H](Cc1ccccc1)C(N)=O [Met--Asp--Phe--NH2] (H-Met-Asp-Phe-NH2) | can function as CCK-antagonists |
| CCCC(=O)Nc1nc2c(ncn2[C@@H]2O[C@@H]3COP(=O)(O)O[C@H]3[C@H]2OC(=O)CCC)c(=O)[nH]1 [dibutyryl cyclic GMP] | the most potent |
| CC(C)C[C@@H]1N[C@H]2N(C1=O)c1ccccc1[C@@]2(O)C[C@@H]1NC(=O)c2ccccc2-n2c1nc1ccccc1c2=O [formula (I), 7β-((2,3,9,9Aα-tetrahydro-9α-hydroxy-2-(2-methylpropyl)-3-oxo-1H-imidazo-(1,2-A)-indol-9-yl)-methyl)quinazolino(3,2-A)(1,4)benzodiazepin-5,13-(6H,7H)dione] | has been shown to be a CCK-antagonist |

target: T1, CCK receptor (pancreas) (Rattus norvegicus, UniProt P30551); assay: CCK receptor binding (pancreas) method; I-CCK-8 pancreas assay (CCK-antagonism); design: species or system male Sprague-Dawley rat; conditions: 125I-CCK binding, rat pancreas membranes, 37° C., 30 minutes; read-out: Anti-CCK Activity IC50
T1 construct: The whole pancreas of a male Sprague-Dawley rat; from tissue; host or cells: whole pancreas of male Sprague-Dawley rat, washed membrane suspension
T1 sequence (P30551 1-444): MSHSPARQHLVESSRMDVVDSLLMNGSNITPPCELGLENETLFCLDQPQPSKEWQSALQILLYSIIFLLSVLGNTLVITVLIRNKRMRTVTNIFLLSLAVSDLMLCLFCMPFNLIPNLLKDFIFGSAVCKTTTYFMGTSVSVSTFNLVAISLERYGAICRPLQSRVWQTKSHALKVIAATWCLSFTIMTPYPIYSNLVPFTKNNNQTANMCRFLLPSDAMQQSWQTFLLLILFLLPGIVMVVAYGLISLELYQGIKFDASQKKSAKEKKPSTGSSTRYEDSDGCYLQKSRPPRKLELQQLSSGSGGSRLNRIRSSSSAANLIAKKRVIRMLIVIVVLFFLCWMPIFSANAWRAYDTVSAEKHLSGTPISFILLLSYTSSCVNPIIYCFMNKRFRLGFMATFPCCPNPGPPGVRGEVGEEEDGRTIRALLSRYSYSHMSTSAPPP
Excerpt: Screening of the novel compounds according to the present invention to determine biological activity and obtain an IC50 value for them, in order to identify significant CCK-antagonism, may be accomplished using an ^125 I-CCK receptor binding assay and in vitro isolated tissue preparations. These tests involve the following:
CCK receptor binding (pancreas) method
CCK-33 is radiolabeled with ^125 I-Bolton Hunter reagent (2000 Ci/mmole), as described by Sankara et al. (J. Biol. Chem., 254, 9349-9351, 1979). Receptor binding is performed according to Innis and Snyder (Proc. Natl. Acad. Sci., 77, 6917-6921, 1980), with the minor modification of adding the additional protease inhibitors, phenyl-methane sulfonyl fluoride and o-phenanthroline, which have no effect on the ^125 I-CCK receptor binding assay.
The whole pancreas of a male Sprague-Dawley rat (200-350 g), which has been sacrificed by decapitation, is dissected free of fat tissue and homogenized in 20 volumes of ice-cold 50 mM Tris HCl (pH 7.7 at 25° C.) with a Brinkman Polytron PT-10. The homogenates are centrifuged at 48,000 g for 10 minutes, then the resulting pellets are resuspended in Tris Buffer, centrifuged as above, and resuspended in 200 volumes of binding assay buffer (50 mM Tris HCl, pH 7.7 at 25° C., 5 mM dithiothreitol, 0.1 mM bacitracin, 1.2 mM phenylmethane sulfonyl fluoride and 0.5 mM o-phenanthroline).
For the binding assay, 25 μl of buffer (for total binding), or unlabeled CCK-8 sulfate sufficient to give a final concentration of 1 μM of CCK-8 (for nonspecific binding), or the compounds of the formula of the compounds according to the instant invention (for determination of antagonism to ^125 I-CCK binding) and 25 μl of ^125 I-CCK-33 (30,000-40,000 cpm), are added to 450 μl of the membrane suspensions in microfuge tubes. All assays are run in duplicate or triplicate, and the reaction mixtures are incubated at 37° C. for 30 minutes and centrifuged in a Beckman Microfuge (4 minutes) immediately after adding 1 ml of ice-cold incubation buffer. The supernatant is aspirated and discarded, and the pellets are counted with a Beckman Gamma 5000.
Activity Testing with I-CCK-8 Pancreas Assay
The compounds of Examples 1-11 were tested as CCK-antagonists (pancreas assay) with the following results: […]

| IC50 | Structure (SMILES) |
| --- | --- |
| 0.21 µM | CC(C)C[C@@H]1N[C@H]2N(C1=O)c1ccccc1[C@@]2(O)C[C@@H]1NC(=O)c2ccccc2N2C(=O)c3ccccc3NC12 (stereo partly drawn) [Example 1, 7,7a-dihydro-7-[(2,3,9,9Aα-tetrahydro-9α-hydroxy-2-(2-methylpropyl)-3-oxo-1H-imidazo(1,2-a)indol-9-yl)methyl]quinazolino(3,2-a)(1,4)benzazepin-5,13-(6H,7H)dione hydrate] |
| 22 µM | CC(=O)N1[C@H]2N(C(=O)[C@@H]1CC(C)C)c1ccccc1[C@@]2(O)C[C@@H]1NC(=O)c2ccccc2-n2c1nc1ccccc1c2=O [Example 2, 7-[(1-acetyl-2,3,9,9Aα-tetrahydro-9α-hydroxy-2-(2-methylpropyl)-3-oxo-1H-imidazo(1,2-A)indol-9-yl)methyl]quinazolino(3,2-A)-1,4-benzodiazepin-5,13-(6H,7H)-dione] |
| 0.35 µM | CCN1[C@H]2N(C(=O)[C@@H]1CC(C)C)c1ccccc1[C@@]2(O)C[C@@H]1NC(=O)c2ccccc2N2C(=O)c3ccccc3NC12 (stereo partly drawn) [Example 3, 7-[(1-ethyl-2,3,9,9Aα-tetrahydro-9α-hydroxy-2-(2-methylpropyl)-3-oxo-1H-imidazo(1,2-A)indol-9-yl)methyl]-6,7,7A,8-tetrahydro-5H,13H-quinazolino-(3,2-A)-1,4-benzazepin-5H,13-dione hemihydrate] |
| 5 µM | CC(C)CC1C(=O)N2c3ccccc3C(O)(CC3NC(=O)c4ccccc4-n4c3nc3ccccc3c4=O)C2N1C(=O)OCc1ccccc1 (stereo not drawn) [Example 4] |
| 0.19 µM | CC(C)CC1C(=O)N2c3ccccc3C(O)(CC3NC(=O)c4ccccc4-n4c3nc3ccccc3c4=O)C2N1CCCc1ccccc1 (stereo not drawn) [Example 6, 7-[1-(3-phenylpropyl)-2,3,9,9Aα-tetrahydro-9α-hydroxy-2-(2-methylpropyl)-3-oxo-1H-imidazo(1,2-A)indol-9-yl)methyl]-6,7,7A,8-tetrahydro-5H,13H-quinazolino(3,2-A)-1,4-benzazepin-5H,13-dione sesquihydrate] |
| 100 µM | CC(C)C[C@H]1C(=O)N2c3ccccc3[C@@](O)(C[C@@H]3NC(=O)c4ccccc4-n4c3nc3ccccc3c4=O)[C@H]2N1C(=O)[C@H](Cc1ccc(OCc2ccccc2)cc1)NC(=O)OC(C)(C)C [Example 7, 7-{{1-[N-((1,1-dimethylethoxy)carbonyl)-o-phenylmethyltryosyl]-2,3,9,9Aα-tetrahydro-9α-hydroxy-2-(2-methylpropyl)-3-oxo-1H-imidazo(1,2-A)indol-9-yl}methyl}quinazolino(3,2-A)-1,4-benzodiazepin-5,13-(6H,7H)-dione] |
| 46 µM | CC(C)C[C@H]1C(=O)N2c3ccccc3[C@@](O)(C[C@@H]3NC(=O)c4ccccc4-n4c3nc3ccccc3c4=O)[C@H]2N1C(=O)[C@H](Cc1ccc(O)cc1)NC(=O)OC(C)(C)C [Example 8, 7-{{1-[2-((1,1-dimethylethoxy)carbonyl)amino-3-(4-hydroxyphenyl)propanoyl]-2,3,9,9Aα-tetrahydro-9α-hydroxy-2-(2-methylpropyl)-3-oxo-1H-imidazo(1,2-A)indol-9-yl}methyl}quinazolino(3,2-A)-1,4-benzodiazepin-5,13-(6H,7H)-dione hemihydrate] |
| 100 µM | CC(C)C[C@H]1C(=O)N2c3ccccc3[C@@](O)(C[C@@H]3NC(=O)c4ccccc4-n4c3nc3ccccc3c4=O)[C@H]2N1C(=O)C(CCCCNC(=O)OCc1ccccc1)NC(=O)OC(C)(C)C (stereo partly drawn) [Example 9, 7-{{1-[2-((1,1-dimethylethoxy)carbonyl)amino-6-(phenylmethyloxycarbonyl)aminohexanoyl]-2,3,9,9Aα-tetrahydro-9α-hydroxy-2-(2-methylpropyl)-3-oxo-1H-imidazo(1,2-A)indol-9-yl}methyl}quinazolino(3,2-A)-1,4-benzodiazepin-5,13-(6H,7H)-dione hydrate] |
| 4.3 µM | CC(C)C[C@H]1C(=O)N2c3ccccc3[C@@](O)(C[C@@H]3NC(=O)c4ccccc4-n4c3nc3ccccc3c4=O)[C@H]2N1C(=O)C(CCCNC(=O)OCc1ccccc1)NC(=O)OC(C)(C)C (stereo partly drawn) [Example 10, 7-{{1-[2-((1,1-dimethylethoxy)carbonyl)amino-5-(phenylmethyloxycarbonyl)aminopentanoyl]-2,3,9,9Aα-tetrahydro-9α-hydroxy-2-(2-methylpropyl)-3-oxo-1H-imidazo(1,2-A)indol-9-yl}methyl}quinazolino(3,2-A)-1,4-benzodiazepin-5,13-(6H,7H)-dione] |
| 1.3 µM | CC(C)C[C@H]1C(=O)N2c3ccccc3[C@@](O)(C[C@@H]3NC(=O)c4ccccc4N4C(=O)c5ccccc5NC34)[C@H]2N1C(=O)C(CCCNC(=O)OCc1ccccc1)NC(=O)OC(C)(C)C (stereo partly drawn) [Example 11, 7-{{1-[2-((1,1-dimethylethoxy)carbonyl)amino-5-(phenylmethyloxycarbonyl)aminopentanoyl]-2,3,9,9Aα-tetrahydro-9α-hydroxy-2-(2-methylpropyl)-3-oxo-1H-imidazo(1,2-A)indol-9-yl}methyl}-6,7,7A,8-tetrahydro-5H,13-quinazolino(3,2-A)-1,4-benzodiazepin-5H,13-dione hydrate] |

| Structure (SMILES) | IC50 |
| --- | --- |
| CC(C)C[C@H]1C(=O)N2c3ccccc3[C@@](O)(C[C@@H]3NC(=O)c4ccccc4N4C(=O)c5ccccc5NC34)[C@H]2N1O (stereo partly drawn) [Example 5, 7,7α-dihydro-7-[(2,3,9,9Aα-tetrahydro-1,9α-dihydroxy-2-(2-methylpropyl)-3-oxo-1H-imidazo-(1,2-A)-indol-9-yl)methyl]quinazolino(3,2-A)-1,4-benzodiazepin-5,13(6H,7H)-dione hydrate] | 0.67 µM |

same assay, conditions: added protease inhibitor in the binding assay

| Structure (SMILES) | effect on the 125I-CCK receptor binding assay |
| --- | --- |
| c1cnc2c(c1)ccc1cccnc12 [o-phenanthroline, reference compound] | no effect |
| O=S(=O)(F)Cc1ccccc1 [phenyl-methane sulfonyl fluoride, reference compound] | no effect |
